According to patent publication US12152038B2, “Vasopressin receptor antagonists and products and methods related thereto” (Neumora Therapeutics, Inc., priority 2017, dated 2024):
Where two headings read alike, the source gives them in different places.

Legend:
[1] = target: T1, human Arginine Vasopressin Receptor V2 (AVPR2) (Homo sapiens, UniProt P30518); assay: Vasopressin V2 receptor antagonist assay (TR-FRET cAMP, 1321N1 cells); format: cell-based
T1 construct: host or cells: 1321N1 (cAMPZen V2 assay ready frozen cells)
T1 sequence (P30518 whole entry): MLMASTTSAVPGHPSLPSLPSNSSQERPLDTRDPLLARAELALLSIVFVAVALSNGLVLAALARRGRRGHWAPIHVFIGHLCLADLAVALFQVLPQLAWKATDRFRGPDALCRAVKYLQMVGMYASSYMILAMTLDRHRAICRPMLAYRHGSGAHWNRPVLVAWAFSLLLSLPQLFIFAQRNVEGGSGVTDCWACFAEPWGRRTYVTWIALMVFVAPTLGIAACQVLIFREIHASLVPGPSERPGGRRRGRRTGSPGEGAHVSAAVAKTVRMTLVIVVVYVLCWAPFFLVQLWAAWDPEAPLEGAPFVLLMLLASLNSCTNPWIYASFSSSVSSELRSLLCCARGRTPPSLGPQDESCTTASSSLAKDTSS

MDR1 (P-glycoprotein) = target: T2, MDR1 (P-glycoprotein) (Homo sapiens, UniProt P08183); assay: MDR1-MDCK permeability and efflux assay (Papp, efflux ratio, effective efflux ratio); format: in vitro ADME; settings: dog; for Papp A→B at 1 h, 10 μM: pH 7.4, read-out: Papp AB MDR1
T2 construct: host or cells: MDCK (MDR1-MDCK; wild-type MDCK as comparator)
T2 sequence (P08183 whole entry): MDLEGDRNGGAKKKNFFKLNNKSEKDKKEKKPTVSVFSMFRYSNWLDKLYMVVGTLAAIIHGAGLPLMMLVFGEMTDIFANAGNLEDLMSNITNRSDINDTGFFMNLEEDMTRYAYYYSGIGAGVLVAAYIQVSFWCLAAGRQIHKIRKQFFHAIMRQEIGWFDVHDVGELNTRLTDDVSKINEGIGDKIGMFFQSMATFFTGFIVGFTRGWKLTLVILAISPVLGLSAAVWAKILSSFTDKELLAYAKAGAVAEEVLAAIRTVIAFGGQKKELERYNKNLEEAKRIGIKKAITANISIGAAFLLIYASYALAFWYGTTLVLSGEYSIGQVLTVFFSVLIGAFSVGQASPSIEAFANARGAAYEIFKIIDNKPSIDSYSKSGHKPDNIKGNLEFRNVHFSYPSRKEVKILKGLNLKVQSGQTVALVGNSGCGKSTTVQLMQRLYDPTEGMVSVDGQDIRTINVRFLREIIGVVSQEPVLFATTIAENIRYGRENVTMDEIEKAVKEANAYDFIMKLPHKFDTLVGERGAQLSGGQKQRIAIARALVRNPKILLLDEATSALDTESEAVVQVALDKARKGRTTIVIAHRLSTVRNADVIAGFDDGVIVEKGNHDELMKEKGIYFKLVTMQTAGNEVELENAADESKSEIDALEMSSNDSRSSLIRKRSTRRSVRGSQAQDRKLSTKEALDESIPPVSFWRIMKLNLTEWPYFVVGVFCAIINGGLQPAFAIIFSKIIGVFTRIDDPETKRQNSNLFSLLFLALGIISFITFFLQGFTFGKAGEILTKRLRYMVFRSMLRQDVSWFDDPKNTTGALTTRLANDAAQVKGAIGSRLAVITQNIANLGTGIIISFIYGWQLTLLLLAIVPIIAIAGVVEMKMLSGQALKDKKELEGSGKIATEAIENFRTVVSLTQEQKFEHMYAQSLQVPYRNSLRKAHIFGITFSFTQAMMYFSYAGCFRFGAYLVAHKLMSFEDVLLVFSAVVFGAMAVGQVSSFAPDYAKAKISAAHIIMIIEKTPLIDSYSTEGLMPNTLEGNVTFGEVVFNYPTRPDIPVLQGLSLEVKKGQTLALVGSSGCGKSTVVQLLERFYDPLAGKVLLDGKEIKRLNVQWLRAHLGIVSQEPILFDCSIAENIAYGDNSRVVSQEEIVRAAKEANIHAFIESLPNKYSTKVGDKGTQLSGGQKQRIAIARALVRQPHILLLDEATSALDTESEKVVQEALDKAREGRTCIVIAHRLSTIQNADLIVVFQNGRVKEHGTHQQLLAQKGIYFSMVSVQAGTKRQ
Summary of the method: (§1)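 Bidirectional transport measured over 1 h at 37 °C with 10 μM test compound (0.1% DMSO) in pH 7.4 HEPES-buffered HBSS across MDR1-transfected and wild-type MDCK monolayers, analysed by LC-MS/MS. Efflux ratio is B>A over A>B Papp; effective efflux ratio divides MDR1-MDCK ER by wild-type ER.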

[2] = Wild-type MDCK permeability and efflux assay (Papp, efflux ratio); format: in vitro ADME; settings: dog, pH 7.4, wild-type MDCK cells; for efflux ratio at 1 h, 10 μM: Papp B>A/Papp A>B, read-out: ER WT (Efflux Ratio)
Summary of the method: as §1

[3] = MDCK-MDR1, pH 7.4, ER(MDR1-MDCK)/ER(wild-type MDCK), read-out: EER (Effective Efflux Ratio)
[4] = MDCK-MDR1, pH 7.4, Papp B>A/Papp A>B, MDR1-MDCK cells, read-out: ER MDR1 (Efflux Ratio)

| IC50 [1] | efflux ratio at 1 h, 10 μM (MDR1 (P-glycoprotein); [3]) | efflux ratio at 1 h, 10 μM (MDR1 (P-glycoprotein); [4]) | Papp A→B at 1 h, 10 μM (MDR1 (P-glycoprotein); MDR1-MDCK cells) | Papp A→B at 1 h, 10 μM [2] | efflux ratio at 1 h, 10 μM [2] | Compound |
| --- | --- | --- | --- | --- | --- | --- |
| 100 to 500 nM | > 3 | > 3 | > 20 ×10⁻⁶ cm/s | > 20 ×10⁻⁶ cm/s | 1 to 2 | Cc1cnnc(N2CC3(CN(C(=O)N4c5ccc(Cl)cc5OCC4C)C3)C2)c1 (stereo not drawn) [21-4] |
| < 100 nM | 1 to 2 | 1 to 2 | > 20 ×10⁻⁶ cm/s | > 20 ×10⁻⁶ cm/s | < 1 | Cc1cnc(N2CC3(CN(C(=O)N4c5ccc(Cl)cc5OCC4C)C3)C2)nc1 (single isomer, unassigned) [20-13-B] |
| 100 to 500 nM | < 1 | < 1 | > 20 ×10⁻⁶ cm/s | > 20 ×10⁻⁶ cm/s | < 1 | CC1COc2cc(Cl)ccc2N1C(=O)N1CC2(C1)CN(c1ncc(F)cn1)C2 (single isomer, unassigned) [18-2-B] |

The next lines start with the compound.

| Compound | IC50 [1] | efflux ratio at 1 h, 10 μM (MDR1 (P-glycoprotein); [3]) | efflux ratio at 1 h, 10 μM (MDR1 (P-glycoprotein); [4]) | Papp A→B at 1 h, 10 μM (MDR1 (P-glycoprotein); MDR1-MDCK cells) | Papp A→B at 1 h, 10 μM [2] | efflux ratio at 1 h, 10 μM [2] |
| --- | --- | --- | --- | --- | --- | --- |
| Cc1nccc(N2CC3(CN(C(=O)N4c5ccc(Cl)cc5OCC4C)C3)C2)n1 (stereo not drawn) [21-8] | 100 to 500 nM | 2 to 3 | 1 to 2 | > 20 ×10⁻⁶ cm/s | > 20 ×10⁻⁶ cm/s | < 1 |
| CC1COc2cc(Cl)ccc2N1C(=O)N1CC2(C1)CN(c1ccccn1)C2 (single isomer, unassigned) [1-60-B] | < 100 nM | 1 to 2 | < 1 | > 20 ×10⁻⁶ cm/s | > 20 ×10⁻⁶ cm/s | < 1 |
| O=C(N1CC2(C1)CN(c1cccnn1)C2)N1CCOc2cc(Cl)ccc21 [1-71] | ≥ 1000 nM | > 3 | 1 to 2 | > 20 ×10⁻⁶ cm/s | > 20 ×10⁻⁶ cm/s | < 1 |
| CC1COc2cc(Cl)ccc2N1C(=O)N1CC2(C1)CN(c1nccc(C(F)(F)F)n1)C2 (stereo not drawn) [21-10] | 100 to 500 nM | 1 to 2 | 1 to 2 | 10 to 20 ×10⁻⁶ cm/s | 10 to 20 ×10⁻⁶ cm/s | 1 to 2 |
